The source made the active and inactive calls. The rule behind the calls is not given here.
Experiments:
[1] = system: Human immunodeficiency virus 1; test: Antiviral activity against wild type HIV-1 infected in human TZM-bl cells incubated for 48 hrs by steady glo reagent based […] luminometer analysis; assay type: functional, organism-based; details: Human immunodeficiency virus 1, TZM-bl
[2] = system: Human immunodeficiency virus 1; test: Antiviral activity against lamivudine resistant HIV-1 harboring RT M184V mutant infected in human TZM-bl cells incubated for 48 hrs by steady glo reagent based […] luminometer analysis; assay type: functional, organism-based; details: Human immunodeficiency virus 1, TZM-bl
[3] = system: Human immunodeficiency virus 1; test: Antiviral activity against azidothymidine resistant HIV-1 harboring RT M41L/T215Y mutant infected in human TZM-bl cells incubated for 48 hrs by steady glo reagent based […] luminometer analysis; assay type: functional, organism-based; details: Human immunodeficiency virus 1, TZM-bl
[4] = system: Human immunodeficiency virus 1; test: Antiviral activity against multidrug resistant HIV-1 harboring RT M41L/T69SSG/T215Y mutant infected in human TZM-bl cells incubated for 48 hrs by steady glo reagent based […] luminometer analysis; assay type: functional, organism-based; details: Human immunodeficiency virus 1, TZM-bl
[5] = Cytotoxicity against human TZM-bl cells assessed as reduction in cell viability incubated for 48 hrs by MTT assay; assay type: toxicity, cell-based
[6] = Cytotoxicity against human MT4 cells assessed as reduction in cell viability incubated for 5 days by MTT assay; assay type: toxicity, cell-based; details: time 5 day
[7] = target: Human immunodeficiency virus type 1 reverse transcriptase (Human immunodeficiency virus 1) (UniProt Q72547); test: Substrate activity at HIV-1 reverse transcriptase assessed as formation of single elongation product at 50 to 400 uM incubated for 60 mins in presence of 14.4 ng/uL enzyme, FAM labeled primer DNA, template RNA, dNTPs by fluorescence based primer extension assay; details: dose 50-400 µM
Homo sapiens [8] = species: Homo sapiens; test: Substrate activity at Taq DNA polymerase (unknown origin) assessed as incorporation into DNA incubated for 60 mins in presence of FAM labeled primer DNA, template DNA, dNTPs by fluorescence based primer extension assay
Homo sapiens [9] = species: Homo sapiens; test: Substrate activity at Phi29 DNA polymerase (unknown origin) assessed as incorporation into DNA incubated for 60 mins in presence of FAM labeled primer DNA, template DNA, dNTPs by fluorescence based primer extension assay
[10] = system: Avian myeloblastosis virus; test: Substrate activity at Avian myeloblastosis virus reverse transcriptase assessed as incorporation into DNA incubated for 60 mins in presence of FAM labeled primer DNA, template DNA, dNTPs by fluorescence based primer extension assay
[11] = target: Human immunodeficiency virus type 1 reverse transcriptase (Human immunodeficiency virus 1) (UniProt Q72547); test: Substrate activity at HIV-1 reverse transcriptase assessed as formation of single elongation product at 100 uM incubated for 60 mins in presence of FAM labeled 13-mer primer DNA, 20-mer template RNA, dNTPs by fluorescence based primer extension assay
[12] = target: Human immunodeficiency virus type 1 reverse transcriptase (Human immunodeficiency virus 1) (UniProt Q72547); test: Substrate activity at HIV-1 reverse transcriptase assessed as formation of single elongation product by measuring elongation efficiency at 100 uM incubated for 60 mins in presence of FAM labeled 13-mer primer DNA, 20-mer template RNA, dNTPs by fluorescence based primer extension assay relative to control
[13] = target: Human immunodeficiency virus type 1 reverse transcriptase (Human immunodeficiency virus 1) (UniProt Q72547); test: Substrate activity at HIV-1 reverse transcriptase assessed as formation of single elongation product at 400 uM in presence of 3.6 ng/uL enzyme, FAM labeled 13-mer primer DNA, 20-mer template RNA, dNTPs by fluorescence based primer extension assay; details: time 0-60 min, TDE = time-dependent effect
[14] = target: Human immunodeficiency virus type 1 reverse transcriptase (Human immunodeficiency virus 1) (UniProt Q72547); test: Substrate activity at HIV-1 reverse transcriptase assessed as formation of single elongation product by measuring elongation efficiency at 400 uM incubated for 60 mins in presence of 3.6 ng/uL enzyme, FAM labeled 13-mer primer DNA, 20-mer template RNA, dNTPs by fluorescence based primer extension assay relative to control
[15] = target: Human immunodeficiency virus type 1 reverse transcriptase (Human immunodeficiency virus 1) (UniProt Q72547); test: Substrate activity at HIV-1 reverse transcriptase assessed as formation of single elongation product by measuring elongation efficiency at 400 uM incubated for 5 mins in presence of 14.4 ng/uL enzyme, FAM labeled 13-mer primer DNA, 20-mer template RNA, dNTPs by fluorescence based primer extension assay relative to control
[16] = target: Human immunodeficiency virus type 1 reverse transcriptase (Human immunodeficiency virus 1) (UniProt Q72547); test: Substrate activity at HIV-1 reverse transcriptase assessed as formation of single elongation product by measuring elongation efficiency at 400 uM incubated for 60 mins in presence of 14.4 ng/uL enzyme, FAM labeled 13-mer primer DNA, 20-mer template RNA, dNTPs by fluorescence based primer extension assay relative to control
[17] = target: Human immunodeficiency virus type 1 reverse transcriptase (Human immunodeficiency virus 1) (UniProt Q72547); test: Substrate activity at HIV-1 reverse transcriptase assessed as formation of multiple elongation products at 50 to 400 uM incubated for 60 mins in presence of 14.4 ng/uL enzyme, FAM labeled primer DNA, template RNA, dNTPs by fluorescence based primer extension assay; details: dose 50-400 µM
[18] = target: Human immunodeficiency virus type 1 reverse transcriptase (Human immunodeficiency virus 1) (UniProt Q72547); test: Substrate activity at HIV-1 reverse transcriptase assessed as 14-mer product formation incubated for 60 mins in presence of 14.4 ng/uL enzyme, FAM labeled primer DNA, template RNA, dNTPs by fluorescence based primer extension assay; details: dose 50-400 µM
[19] = target: Human immunodeficiency virus type 1 reverse transcriptase (Human immunodeficiency virus 1) (UniProt Q72547); test: Substrate activity at HIV-1 reverse transcriptase assessed as 15-mer product formation incubated for 60 mins in presence of 14.4 ng/uL enzyme, FAM labeled primer DNA, template RNA, dNTPs by fluorescence based primer extension assay; details: dose 50-400 µM
[20] = target: Human immunodeficiency virus type 1 reverse transcriptase (Human immunodeficiency virus 1) (UniProt Q72547); test: Substrate activity at HIV-1 reverse transcriptase assessed as mismatch elongation mediated 19-mer product formation at 50 to 400 uM incubated for 60 mins in presence of 14.4 ng/uL enzyme, FAM labeled primer DNA, template RNA, dNTPs by fluorescence based primer extension assay; details: dose 50-400 µM
[21] = target: Human immunodeficiency virus type 1 reverse transcriptase (Human immunodeficiency virus 1) (UniProt Q72547); test: Substrate activity at HIV-1 reverse transcriptase assessed as mismatch elongation mediated 20-mer product formation at 50 to 400 uM incubated for 60 mins in presence of 14.4 ng/uL enzyme, FAM labeled primer DNA, template RNA, dNTPs by fluorescence based primer extension assay; details: dose 50-400 µM
[22] = target: Human immunodeficiency virus type 1 reverse transcriptase (Human immunodeficiency virus 1) (UniProt Q72547); test: Substrate activity at HIV-1 reverse transcriptase assessed as increase in multiple base elongation product at 100 uM in presence of FAM labeled 13-mer primer DNA, 20-mer template RNA, dNTPs by fluorescence based primer extension assay; details: time 0-60 min, TDE = time-dependent effect

| Compound | EC50 [1] [µM] | EC50 [2] [µM] | EC50 [3] [µM] | EC50 [4] [µM] | CC50 at 48 h [5] [µM] | CC50 at 120 h [6] [µM] | further results |
| --- | --- | --- | --- | --- | --- | --- | --- |
| Cc1cn([C@H]2C[C@H](N=[N+]=[N-])[C@@H](CO)O2)c(=O)[nH]c1=O [ZIDOVUDINE] | 0.03 | 0.022 | 0.09 | 13 | > 100 | 51 |  |
| C[Se][C@H]1[C@H](O)[C@@H](CO)O[C@H]1n1cnc2c(N)ncnc21 | > 100 | > 100 | > 100 | > 100 | > 100 | > 100 |  |
| Nc1ncnc2c1ncn2[C@H]1CC[C@@H](COP(=O)(O)OP(=O)(O)OP(=O)(O)O)O1 |  |  |  |  |  |  | Activity [7]: Active |
| O=c1[nH]cnc2c1ncn2[C@H]1CC[C@@H](CO)O1 [DIDANOSINE] | 4.2 | 7.1 | 4.6 | 25 | > 100 | > 100 |  |
| C[Se][C@H]1[C@H](O)[C@@H](CO)O[C@H]1n1cc(C)c(=O)[nH]c1=O |  |  |  |  | 0.25 | 0.72 |  |
| COc1nc(N)nc2c1ncn2[C@@H]1O[C@H](CO)[C@@H](O)[C@@H]1[Se]C | > 20 | > 20 | > 20 | > 20 | > 100 | > 100 |  |
| C[Se][C@H]1[C@H](O)[C@@H](COP(=O)(N[C@@H](C)C(=O)OC(C)C)Oc2ccccc2)O[C@H]1n1ccc(=O)[nH]c1=O (stereo not given in full) |  |  |  |  | 0.004 | 0.007 |  |
| C[Se][C@H]1[C@H](O)[C@@H](CO)O[C@H]1n1ccc(=O)[nH]c1=O |  |  |  |  | 0.005 | 0.006 |  |
| C[Se][C@H]1[C@H](O)[C@@H](CO)O[C@H]1n1cnc2c(N)nc(N)nc21 | > 100 | > 100 | > 100 | > 100 | > 100 | > 100 |  |
| C[Se][C@H]1[C@H](O)[C@@H](CO[P@@](=O)(N[C@@H](C)C(=O)OC(C)C)Oc2ccccc2)O[C@H]1n1cnc2c(N)nc(F)nc21 | > 20 |  |  |  | 80 | > 100 |  |
| C[Se][C@H]1[C@H](O)[C@@H](COP(=O)(N[C@@H](C)C(=O)OC(C)C)Oc2ccccc2)O[C@H]1n1cnc2c(=O)[nH]c(N)nc21 (stereo not given in full) | > 20 |  |  |  | 63 | 51 |  |
| C[Se][C@H]1[C@H](O)[C@@H](CO)O[C@H]1n1cnc2c(=O)[nH]c(N)nc21 | > 100 | > 100 | > 100 | > 100 | > 100 | > 100 |  |
| C[Se][C@H]1[C@H](O)[C@@H](COP(=O)(N[C@@H](C)C(=O)OC(C)C)Oc2ccccc2)O[C@H]1n1cnc2c(N)nc(N)nc21 (stereo not given in full) | > 0.8 |  |  |  | 2.8 | 5.5 |  |
| C[Se][C@H]1[C@H](O)[C@@H](CO)O[C@H]1n1cnc2c(N)nc(F)nc21 | > 20 | > 20 | > 20 | > 20 | 29 | 12 |  |
| CCCC(CC)OC(=O)[C@H](C)N[P@](=O)(OC[C@H]1O[C@@H](n2cnc3c(N)ncnc32)[C@@H]([Se]C)[C@@H]1O)Oc1ccccc1 (stereo not given in full) | 2.6 | 4.4 | 5.5 |  | > 100 | > 100 |  |
| COc1nc(N)nc2c1ncn2[C@@H]1O[C@H](COP(=O)(N[C@@H](C)C(=O)OC(C)C)Oc2ccccc2)[C@@H](O)[C@@H]1[Se]C (stereo not given in full) | 54 | 46 | 45 | 61 | > 100 | > 100 |  |
| Nc1ccn([C@@H]2CS[C@H](CO)O2)c(=O)n1 [LAMIVUDINE] | 0.52 | > 100 | 0.85 | 9.8 | > 100 | > 100 |  |
| C[Se][C@H]1[C@H](O)[C@@H](CO[P@@](=O)(N[C@@H](C)C(=O)OC(C)C)Oc2ccccc2)O[C@H]1n1cnc2c(N)ncnc21 | 2.2 | 5.7 | 5.8 | 2.8 | > 100 | > 100 |  |
| C[Se][C@H]1[C@H](O)[C@@H](COP(=O)(N[C@@H](C)C(=O)OC(C)C)Oc2ccccc2)O[C@H]1n1cnc2c(N)ncnc21 (stereo not given in full) | 3.7 | 6.8 | 7 | 3.8 | > 100 | > 100 |  |
| C[Se][C@H]1[C@H](O)[C@@H](COP(=O)(O)OP(=O)(O)OP(=O)(O)O)O[C@H]1n1cnc2c(N)ncnc21 |  |  |  |  |  |  | Activity (Homo sapiens [8]): inactive; Activity (Homo sapiens [9]): inactive; Activity [10]: Active; Activity [11]: Active; Activity [12]: 80%; Activity [13]: Tde; Activity [14]: 77%; Activity [15]: 70%; Activity [16]: 94%; Activity [7]: Active; Activity [17]: Active; Activity [18]: Dose-Dependent Effect; Activity [19]: Dose-Dependent Effect; Activity [20]: Active; Activity [21]: Active |
| Nc1ncnc2c1ncn2[C@H]1C[C@H](O)[C@@H](COP(=O)(O)OP(=O)(O)OP(=O)(O)O)O1 |  |  |  |  |  |  | Activity [22]: Tde |
| C[Se][C@H]1[C@H](O)[C@@H](COP(=O)(N[C@@H](C)C(=O)OC(C)C)Oc2ccccc2)O[C@H]1n1cc(C)c(=O)[nH]c1=O (stereo not given in full) |  |  |  |  | 0.006 | 0.007 |  |

— ChEMBL document CHEMBL5576091, “2'-β-Methylselenyl nucleos(t)ide analogs as reverse transcriptase inhibitors against diverse HIV mutants” (Bioorg Med Chem, 2024)
